Measurements taken from patent US20220362253A1, “NOVEL PHARMACEUTICAL FORMULATION” (GLAXOSMITHKLINE INTELLECTUAL PROPERTY DEVELOPMENT LIMITED, priority 2018, published 2022).
Converted amounts (≈) assume the structure as drawn. “And” between values parts separate entries of the source, which are not always exact repeats. Identical values can stand only once.

Key:
[1] = Solubility screening up to 5 mg/mL at RT in aqueous acid media (Examples 1 to 6); assay type: physicochemical; conditions: free base; for solubility at 24 h: thermodynamic from solid, read-out: Drug Solubility
Experimental: Solubility of Compound A was conducted by adding a known quantity of drug to specific volume of aqueous media followed by 24 hour agitation at room temperature (RT).

[2] = Solubility screening up to 2 mg/mL at RT in aqueous acid media (Examples 7 to 13); assay type: physicochemical; conditions: target up to 2 mg/mL; for solubility at 24 h: thermodynamic from solid, read-out: Drug Solubility
[3] = Solubility in 20 mM acetic, citric and L-aspartic aqueous media as a function of pH (Example 14); assay type: physicochemical
[4] = Aqueous solubility with glutamic acid and glucuronic acid (Example 15); assay type: physicochemical; conditions: aqueous buffer, thermodynamic from solid, adjusted pH 4.1, filtered supernatant
Text: Aqueous solubility of Compound A with glutamic acid and glucuronic acid were explored in Example 15.

[5] = pHmax / Ksp determination with L-aspartic acid (Example 16); assay type: physicochemical; conditions: for solubility: L-aspartic acid solution, thermodynamic from solid, >110 hr stirring at RT, read-out: Drug Solubility; for solubility / pH max: L-aspartic acid; for pH max: pHmax = pKa + log (S0/√Ksp)
Experimental: Compound A solubility was separately determined by controlling the mole ratio of L-aspartic acid relative to drug in Example 16. The concentrations of drug and counterion were measured in supernatant to calculate Ksp (Solubility product) (Table 5).

cynomolgus monkeys = experiment: Injection site reactions after repeat IV bolus dosing (Example 17); assay type: in vivo, cynomolgus monkey; conditions: weekly IV bolus into antecubital vein then saline flush, 30 mM L-aspartic acid, 3.7% mannitol, pH approximately 3.0, non-stoichiometric hydrate form
Experimental: In vivo studies were conducted in cynomolgus monkeys administered IV doses of Compound A in a vehicle of 30 mM L-aspartic acid, 3.7% mannitol in Sterile Water for Injection, pH approximately 3.0. For these studies, Compound A was used in a non-stoichiometric hydrate form according to Table 6.

[6] = Stated physical properties: water solubility, hygroscopicity; assay type: physicochemical
Stated bioavailability = conditions: oral

## CCn1nc(C)cc1C(=O)Nc1nc2cc(C(N)=O)cc(OC)c2n1C/C=C/Cn1c(NC(=O)c2cc(C)nn2CC)nc2cc(C(N)=O)cc(OCCCN3CCOCC3)c21 [Compound A, (E)-1-(4-(5-Carbamoyl-2-(1-ethyl-3-methyl-1H-pyrazole-5-carboxamido)-7-(3-morpholinopropoxy)-1H-benzo[d]imidazol-1-yl)but-2-en-1-yl)-2-(1-ethyl-3-methyl-1H-pyrazole-5-carboxamido)-7-methoxy-1H-benzo[d]imidazole-5-carboxamide]
[1]; 9.5 mM Lactic acid, solution pH 3.83, stirred 24 h at RT
  Drug Solubility: 3590 µg/mL
[1]; 9.5 mM lactic acid aqueous medium, pH 3.83, aqueous buffer, 9.5 mM Lactic acid, solution pH 3.83, stirred 24 h at RT
  solubility at 24 h: > 3500 µg/mL
[1]; 50 mM Citric acid, solution pH 2.30, stirred 24 h at RT
  Drug Solubility: 1320 µg/mL
[1]; 50 mM citric acid aqueous medium, pH 2.3, aqueous buffer, 50 mM Citric acid, solution pH 2.30, stirred 24 h at RT
  solubility at 24 h: < 2000 µg/mL
[1]; 72.8 mM Methane sulfonic acid, solution pH 1.27, stirred 24 h at RT
  Drug Solubility: 3850 µg/mL
[1]; 72.8 mM methane sulfonic acid aqueous medium, pH 1.27, aqueous buffer, 72.8 mM Methane sulfonic acid, solution pH 1.27, stirred 24 h at RT
  solubility at 24 h: > 3500 µg/mL
[1]; 170 mM Acetic acid, solution pH 3.16, stirred 24 h at RT
  Drug Solubility: 4050 µg/mL
[1]; 170 mM acetic acid aqueous medium, pH 3.16, aqueous buffer, 170 mM Acetic acid, solution pH 3.16, stirred 24 h at RT
  solubility at 24 h: > 3500 µg/mL
[2]; 10 mM Acetic acid, solution pH 3.33, stirred 24 h
  Drug Solubility: 1450 µg/mL
[2]; 10 mM Methane sulfonic acid, solution pH 1.99, stirred 24 h
  Drug Solubility: 1780 µg/mL
[2]; 10 mM acetic acid aqueous medium, pH 3.33, aqueous buffer, 10 mM Acetic acid, solution pH 3.33, stirred 24 h
  solubility at 24 h: > 1000 µg/mL
[2]; 10 mM methane sulfonic acid aqueous medium, pH 1.99, aqueous buffer, 10 mM Methane sulfonic acid, solution pH 1.99, stirred 24 h
  solubility at 24 h: > 1000 µg/mL
[2]; 25 mM Aspartic acid, solution pH 2.95, stirred 24 h
  Drug Solubility: 1800 µg/mL
[2]; 25 mM Citric acid, solution pH 2.32, stirred 24 h
  Drug Solubility: 1810 µg/mL
[2]; 25 mM Lactic acid, solution pH 2.57, stirred 24 h
  Drug Solubility: 1830 µg/mL
[2]; 25 mM Tartaric acid, solution pH 2.33, stirred 24 h
  Drug Solubility: 800 µg/mL
[2]; 25 mM aspartic acid aqueous medium, pH 2.95, aqueous buffer, 25 mM Aspartic acid, solution pH 2.95, stirred 24 h
  solubility at 24 h: > 1000 µg/mL
[2]; 25 mM citric acid aqueous medium, pH 2.32, aqueous buffer, 25 mM Citric acid, solution pH 2.32, stirred 24 h
  solubility at 24 h: > 1000 µg/mL
[2]; 25 mM lactic acid aqueous medium, pH 2.57, aqueous buffer, 25 mM Lactic acid, solution pH 2.57, stirred 24 h
  solubility at 24 h: > 1000 µg/mL
[2]; 25 mM tartaric acid aqueous medium, pH 2.33, aqueous buffer, 25 mM Tartaric acid, solution pH 2.33, stirred 24 h
  solubility at 24 h: < 1000 µg/mL
[3]; 20 mM L-aspartic acid aqueous media, 22 °C, aqueous buffer, thermodynamic from solid, 20 mM L-aspartic acid media, pH 6.14, 22 ± 1° C., Compound A in excess, read-out: Solubility
  solubility: 0.7 µg/mL (≈ 0.824 µM)
[3]; 20 mM L-aspartic acid aqueous media, 22 °C, aqueous buffer, thermodynamic from solid, 20 mM L-aspartic acid media, pH 7.97, 22 ± 1° C., Compound A in excess, read-out: Solubility
  solubility: 0.5 µg/mL (≈ 0.588 µM)
[3]; 20 mM L-aspartic acid aqueous media, 22 °C, aqueous buffer, thermodynamic from solid, 20 mM L-aspartic acid media, pH 8.87, 22 ± 1° C., Compound A in excess, read-out: Solubility
  solubility: 0.9 µg/mL (≈ 1.06 µM)
[3]; 20 mM L-aspartic acid aqueous medium, aqueous buffer, Aspartic acid, at pH<3, read-out: Highest solubility
  solubility: 4000 µg/mL (≈ 4710 µM)
[3]; 20 mM acetic acid aqueous media, 22 °C, aqueous buffer, thermodynamic from solid, 20 mM acetic acid media, pH 6.42, 22 ± 1° C., Compound A in excess, read-out: Solubility
  solubility: 0.5 µg/mL (≈ 0.588 µM)
[3]; 20 mM acetic acid aqueous media, 22 °C, aqueous buffer, thermodynamic from solid, 20 mM acetic acid media, pH 9.84, 22 ± 1° C., Compound A in excess, read-out: Solubility
  solubility: 0.5 µg/mL (≈ 0.588 µM)
[3]; 20 mM acetic, citric or L-aspartic acid aqueous media, aqueous buffer, at pH 4.0, any of the counter ions (L-aspartic, acetic, citric acid), read-out: Solubility
  solubility: ≤ 500 µg/mL
[3]; 20 mM citric acid aqueous media, 22 °C, aqueous buffer, thermodynamic from solid, 20 mM citric acid media, pH 6.92, 22 ± 1° C., Compound A in excess, read-out: Solubility
  solubility: 0.5 µg/mL (≈ 0.588 µM)
[3]; 20 mM citric acid aqueous media, 22 °C, aqueous buffer, thermodynamic from solid, 20 mM citric acid media, pH 8.82, 22 ± 1° C., Compound A in excess, read-out: Solubility
  solubility: 0.5 µg/mL (≈ 0.588 µM)
[3]; 22 °C, aqueous buffer, thermodynamic from solid, 20 mM L-aspartic acid media, pH 3.05, 22 ± 1° C., Compound A in excess, read-out: Solubility
  solubility: 5270 µg/mL (≈ 6200 µM)
[3]; 22 °C, aqueous buffer, thermodynamic from solid, 20 mM L-aspartic acid media, pH 3.23, 22 ± 1° C., Compound A in excess, read-out: Solubility
  solubility: 3970 µg/mL (≈ 4670 µM)
[3]; 22 °C, aqueous buffer, thermodynamic from solid, 20 mM L-aspartic acid media, pH 3.76, 22 ± 1° C., Compound A in excess, read-out: Solubility
  solubility: 472 µg/mL (≈ 555 µM)
[3]; 22 °C, aqueous buffer, thermodynamic from solid, 20 mM L-aspartic acid media, pH 3.96, 22 ± 1° C., Compound A in excess, read-out: Solubility
  solubility: 227 µg/mL (≈ 267 µM)
[3]; 22 °C, aqueous buffer, thermodynamic from solid, 20 mM L-aspartic acid media, pH 4.18, 22 ± 1° C., Compound A in excess, read-out: Solubility
  solubility: 68.7 µg/mL (≈ 80.8 µM)
[3]; 22 °C, aqueous buffer, thermodynamic from solid, 20 mM L-aspartic acid media, pH 4.54, 22 ± 1° C., Compound A in excess, read-out: Solubility
  solubility: 16.7 µg/mL (≈ 19.6 µM)
[3]; 22 °C, aqueous buffer, thermodynamic from solid, 20 mM L-aspartic acid media, pH 4.93, 22 ± 1° C., Compound A in excess, read-out: Solubility
  solubility: 5 µg/mL (≈ 5.88 µM)
[3]; 22 °C, aqueous buffer, thermodynamic from solid, 20 mM acetic acid media, pH 3.26, 22 ± 1° C., Compound A in excess, read-out: Solubility
  solubility: 1760 µg/mL (≈ 2070 µM)
[3]; 22 °C, aqueous buffer, thermodynamic from solid, 20 mM acetic acid media, pH 3.58, 22 ± 1° C., Compound A in excess, read-out: Solubility
  solubility: 1090 µg/mL (≈ 1280 µM)
[3]; 22 °C, aqueous buffer, thermodynamic from solid, 20 mM acetic acid media, pH 3.71, 22 ± 1° C., Compound A in excess, read-out: Solubility
  solubility: 810 µg/mL (≈ 953 µM)
[3]; 22 °C, aqueous buffer, thermodynamic from solid, 20 mM acetic acid media, pH 3.91, 22 ± 1° C., Compound A in excess, read-out: Solubility
  solubility: 396 µg/mL (≈ 466 µM)
[3]; 22 °C, aqueous buffer, thermodynamic from solid, 20 mM acetic acid media, pH 4.09, 22 ± 1° C., Compound A in excess, read-out: Solubility
  solubility: 269 µg/mL (≈ 316 µM)
[3]; 22 °C, aqueous buffer, thermodynamic from solid, 20 mM acetic acid media, pH 4.64, 22 ± 1° C., Compound A in excess, read-out: Solubility
  solubility: 24.1 µg/mL (≈ 28.4 µM)
[3]; 22 °C, aqueous buffer, thermodynamic from solid, 20 mM acetic acid media, pH 4.85, 22 ± 1° C., Compound A in excess, read-out: Solubility
  solubility: 10.8 µg/mL (≈ 12.7 µM)
[3]; 22 °C, aqueous buffer, thermodynamic from solid, 20 mM acetic acid media, pH 5.48, 22 ± 1° C., Compound A in excess, read-out: Solubility
  solubility: 2.9 µg/mL (≈ 3.41 µM)
[3]; 22 °C, aqueous buffer, thermodynamic from solid, 20 mM citric acid media, pH 2.47, 22 ± 1° C., Compound A in excess, read-out: Solubility
  solubility: 456 µg/mL (≈ 536 µM)
[3]; 22 °C, aqueous buffer, thermodynamic from solid, 20 mM citric acid media, pH 2.61, 22 ± 1° C., Compound A in excess, read-out: Solubility
  solubility: 195 µg/mL (≈ 229 µM)
[3]; 22 °C, aqueous buffer, thermodynamic from solid, 20 mM citric acid media, pH 2.74, 22 ± 1° C., Compound A in excess, read-out: Solubility
  solubility: 81.6 µg/mL (≈ 96 µM)
[3]; 22 °C, aqueous buffer, thermodynamic from solid, 20 mM citric acid media, pH 3.98, 22 ± 1° C., Compound A in excess, read-out: Solubility
  solubility: 5.4 µg/mL (≈ 6.35 µM)
[3]; 22 °C, aqueous buffer, thermodynamic from solid, 20 mM citric acid media, pH 4.94, 22 ± 1° C., Compound A in excess, read-out: Solubility
  solubility: 4 µg/mL (≈ 4.71 µM)
[3]; 22 °C, aqueous buffer, thermodynamic from solid, 20 mM citric acid media, pH 5.91, 22 ± 1° C., Compound A in excess, read-out: Solubility
  solubility: 1.3 µg/mL (≈ 1.53 µM)
[3]; 22 °C, pH 2.9, aqueous buffer, thermodynamic from solid, 20 mM citric acid media, pH 2.90, 22 ± 1° C., Compound A in excess, read-out: Solubility
  solubility: 41.5 µg/mL (≈ 48.8 µM)
[3]; 22 °C, pH 3.4, aqueous buffer, thermodynamic from solid, 20 mM citric acid media, pH 3.40, 22 ± 1° C., Compound A in excess, read-out: Solubility
  solubility: 8.3 µg/mL (≈ 9.77 µM)
[4]; aqueous glucuronic acid (1 mol eq), Glucuronic acid (1 mol eq)
  solubility: 9000 µg/mL (≈ 10600 µM)
[4]; aqueous glutamic acid (1 mol eq), Glutamic acid (1 mol eq)
  solubility: 4500 µg/mL (≈ 5290 µM)
[5]; counterion conc. 8.45 mM
  solubility: 4070 µg/mL and 4790 µM
  pH max: 3.57
[5]; counterion conc. 8.70 mM
  solubility: 3950 µg/mL and 4640 µM
  pH max: 3.57
[5]; counterion conc. 9.18 mM
  solubility: 3940 µg/mL and 4640 µM
  pH max: 3.56
[5]; counterion conc. 9.33 mM
  solubility: 4140 µg/mL and 4880 µM
  pH max: 3.54
[5]; in L-aspartic acid media, from the Ksp measurements in Table 5
  pHmax: 3.5-3.6
[5]; value used for the pHmax calculation, read-out: pKa of drug
  pKa: 7
Cynomolgus monkeys
  Injection site reactions: no Compound A-related injection site reactions were observed
[6]
  solubility: < 10 µg/mL
Stated bioavailability
  bioavailability: poor oral bioavailability
